Laboratory results from patent US8524737B2, “Bi- and polycyclic substituted isoquinoline and isoquinolinone derivatives” (Sanofi, priority 2008, dated 2013).

target: T1, human recombinant ROCK II (Homo sapiens, UniProt O75116); assay: Determination of Rho Kinase Inhibition (ROCK II, Caliper peptide phosphorylation assay); format: biochemical; details: tested in the form (salt or free base) obtained in the examples
T1 construct: recombinant human ROCK-II residues 11-552; His6 (N); purchased Millipore GmbH, Schwalbach, Germany
Protocol: Determination of Rho Kinase Inhibition To measure Rho-kinase inhibition, IC50 values were determined according to the following protocol: Active human recombinant ROCK II (N-terminal His6-tagged recombinant human ROCK-II residues 11-552) was purchased from Millipore GmbH, Schwalbach, Germany. The peptide substrate, Fluorescein-AKRRRLSSLRA-COOH, was obtained from JPT Peptide Technologies, Berlin, Germany. Adenosine-5′-triphosphate (ATP), bovine serum albumine (BSA), dimethylsulphoxide (DMSO), 4-(2-hydroxyethyl)piperazine-1-ethanesulfonic acid (Hepes), Brij-35, dithiothreitol (DTT) and Pluronic F-68 were purchased from Sigma-Aldrich, Munich, Germany. Tris(hydroxymethyl)-aminomethane (Tris), magnesium chloride, NaOH, 1M HCl and EDTA were obtained from Merck Biosciences, Darmstadt, Germany. “Complete” protease inhibitor was from Roche Diagnostics, Mannheim, Germany. Test compounds were diluted to the appropriate concentrations in buffer 1 (25 mM Tris-HCl, pH 7.4, 5 mM MgCl2, 2 mM DTT, 0.02% (w/v) BSA, 0.01% Pluronic F-68 and 3% DMSO). The ROCK II enzyme was diluted to a concentration of 100 ng/ml in buffer 2 (25 mM Tris-HCl, pH 7.4, 5 mM MgCl2, 2 mM DTT and 0.02% (w/v) BSA). The peptide substrate and ATP were diluted to concentrations of 3 μM and 120 μM, respectively, in the buffer 2. Two μl of the compound solution were mixed with 2 μl of the diluted enzyme in a 384-well small volume microtiter plate (Greiner, Bio-One, Frickenhausen, Germany), and the kinase reaction was initiated by addition of 2 μl of the solution containing peptide substrate and ATP. After 60 min incubation at 32° C., the reaction was stopped by addition of 20 μl of a solution containing 100 mM Hepes-NaOH, pH 7.4, 0.015% (v/v) Brij-35, 45 mM EDTA and 0.227% chip coating reagent 1 (Caliper Lifescience Inc, Hopkinton, Mass.). Phosphorylation of the substrate peptide was then detected on a Caliper 3000 instrument essentially as described by Pommereau et al (J. Biomol. Screening 2004, 9(5), 409-416). Separation conditions were as follows: Pressure −1.3 psi, upstream voltage −1562 V, downstream voltage −500 V, sample sip time 200 ms. Positive controls (buffer 1 instead of compound) and negative controls (buffer 1 instead of compound and buffer 2 instead of ROCK II) were run in parallel on each plate. The following products/compounds were tested in said assay by using the respective form (salt or free base) obtained as in the examples described above and the following activities were measured

T1 sequence (O75116 11-552): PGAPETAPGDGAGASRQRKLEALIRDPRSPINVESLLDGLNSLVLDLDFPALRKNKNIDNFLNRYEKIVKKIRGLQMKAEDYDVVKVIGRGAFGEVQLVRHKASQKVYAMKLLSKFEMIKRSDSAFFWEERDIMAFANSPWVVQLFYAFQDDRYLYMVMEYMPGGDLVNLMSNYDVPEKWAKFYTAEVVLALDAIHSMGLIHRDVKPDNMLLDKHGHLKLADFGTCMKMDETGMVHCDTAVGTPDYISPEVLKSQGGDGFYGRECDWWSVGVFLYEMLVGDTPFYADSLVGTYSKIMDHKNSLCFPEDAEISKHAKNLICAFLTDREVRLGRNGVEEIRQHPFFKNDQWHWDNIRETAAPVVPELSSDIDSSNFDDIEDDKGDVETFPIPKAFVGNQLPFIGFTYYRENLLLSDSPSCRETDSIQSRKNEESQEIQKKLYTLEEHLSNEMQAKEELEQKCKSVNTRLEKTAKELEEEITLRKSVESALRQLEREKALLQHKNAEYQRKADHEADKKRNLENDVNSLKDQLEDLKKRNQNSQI

IC50 [nM]	pIC50	Structure (SMILES)
10 to 100	–	N[C@H]1C[C@H]2COC[C@@H](C1)[C@H]2Oc1cc2cc[nH]c(=O)c2cc1Cl [Example 17, 6-{[(7-Endo,9-anti)-7-amino-3-oxabicyclo[3.3.1]non-9-yl]oxy}-7-chloroisoquinolin-1(2H)-one]
10 to 100	–	NC1C2CC3CC1CC(Oc1cc4cc[nH]c(=O)c4cc1Cl)(C3)C2 (single isomer, unassigned) [Example 1, 6-(4-Amino-adamantan-1-yloxy)-7-chloro-2H-isoquinolin-1-one]
10 to 100	–	CC1(N)C2CC3CC1CC(Oc1cc4cc[nH]c(=O)c4cc1Cl)(C3)C2 (single isomer, unassigned) [Example 8, 6-(4-Amino-4-methyl-adamantan-1-yloxy)-7-chloro-2H-isoquinolin-1-one]
100 to 1000	–	NC12C[C@H]3C[C@@H](C1)CC(Oc1cc4cc[nH]c(=O)c4cc1Cl)(C3)C2 [Example 13, 6-(3-Amino-adamantan-1-yloxy)-7-chloro-2H-isoquinolin-1-one]
100 to 1000	–	O=c1[nH]ccc2cc(OC34CC5CC(C3)C(NCc3ccccc3)C(C5)C4)c(Cl)cc12 (single isomer, unassigned) [Example 12, 6-(4-Benzylamino-adamantan-1-yloxy)-7-chloro-2H-isoquinolin-1-one]
10 to 100	–	N[C@H]1C[C@H]2CSC[C@@H](C1)[C@H]2Oc1cc2cc[nH]c(=O)c2cc1Cl [Example 19, 6-{[(7-Endo,9-anti)-7-amino-3-thiabicyclo[3.3.1]non-9-yl]oxy}-7-chloroisoquinolin-1(2H)-one]
100 to 1000	–	C=CCC1(N)C2CC3CC1CC(Oc1cc4cc[nH]c(=O)c4cc1Cl)(C3)C2 (single isomer, unassigned) [Example 4, 6-(4-Allyl-4-amino-adamantan-1-yloxy)-7-chloro-2H-isoquinolin-1-one]
≤ 10	–	N[C@]12CC3CC(C1)[C@H](Oc1cc4cc[nH]c(=O)c4cc1Cl)C(C3)C2 (single isomer, unassigned) [Example 14, Cis-6-(5-Amino-adamantan-2-yloxy)-7-chloro-2H-isoquinolin-1-one]
–	+++++++ (8.0≦pIC50)	Cc1cc2c(=O)[nH]ccc2cc1OC1C2CC3CC1CC(N)(C3)C2 (single isomer, unassigned) [Example 16, 6-(5-Amino-adamantan-2-yloxy)-7-methyl-2H-isoquinolin-1-one]
10 to 100	–	N[C@H]1C[C@H]2CSC[C@@H](C1)[C@@H]2Oc1cc2cc[nH]c(=O)c2cc1Cl [Example 20, 6-{[(7-endo,9-syn)-7-amino-3-thiabicyclo[3.3.1]non-9-yl]oxy}-7-chloroisoquinolin-1(2H)-one]
10 to 100	–	C=CCC1(N)C2CC3CC1CC(Oc1cc4cc[nH]c(=O)c4cc1Cl)(C3)C2 (single isomer, unassigned) [Example 3, 6-(4-Allyl-4-amino-adamantan-1-yloxy)-7-chloro-2H-isoquinolin-1-one]
10 to 100	–	CCCC1(N)C2CC3CC1CC(Oc1cc4cc[nH]c(=O)c4cc1Cl)(C3)C2 (single isomer, unassigned) [Example 5, 6-(4-Amino-4-propyl-adamantan-1-yloxy)-7-chloro-2H-isoquinolin-1-one]
≤ 10	–	N[C@]12CC3CC(C1)[C@@H](Oc1cc4cc[nH]c(=O)c4cc1Cl)C(C3)C2 (single isomer, unassigned) [Example 15, Trans-6-(5-Amino-adamantan-2-yloxy)-7-chloro-2H-isoquinolin-1-one]
10 to 100	–	O=c1[nH]ccc2cc(O[C@H]3CC[C@@]4(CCCN4)CC3)c(Cl)cc12 [Example 22, 6-(1-Aza-spiro[4.5]dec-8-yloxy)-7-chloro-2H-isoquinolin-1-one]
100 to 1000	–	CCCC1(N)C2CC3CC1CC(Oc1cc4cc[nH]c(=O)c4cc1Cl)(C3)C2 (single isomer, unassigned) [Example 6, 6-(4-Amino-4-propyl-adamantan-1-yloxy)-7-chloro-2H-isoquinolin-1-one]
10 to 100	–	N[C@H]1C[C@H]2COC[C@@H](C1)[C@@H]2Oc1cc2cc[nH]c(=O)c2cc1Cl [Example 18, 6-{[(7-endo,9-syn)-7-amino-3-oxabicyclo[3.3.1]non-9-yl]oxy}-7-chloroisoquinolin-1(2H)-one]
100 to 1000	–	NC1(c2ccccc2)C2CC3CC1CC(Oc1cc4cc[nH]c(=O)c4cc1Cl)(C3)C2 (single isomer, unassigned) [Example 9, 6-(4-Amino-4-phenyl-adamantan-1-yloxy)-7-chloro-2H-isoquinolin-1-one]
10 to 100	–	NC1(C2CC2)C2CC3CC1CC(Oc1cc4cc[nH]c(=O)c4cc1Cl)(C3)C2 (single isomer, unassigned) [Example 11, 6-(4-Amino-4-cyclopropyl-adamantan-1-yloxy)-7-chloro-2H-isoquinolin-1-one]
